# Reference: PubChem BioAssay AID2060503 (Molecular Pharmacology Branch, DTP, NCI, 2025)
# pIC50: −log10 of the molar value.
# Tested on: 817829-284-R-J1-PDC complex spheroids, viability
# Assay: Anticancer human tumor 817829-284-R-J1-PDC patient-derived colon adenocarcinoma cell line growth inhibition [GQUAD]
# Conditions: for pIC50: curve of first compound; for viability, T/C: stronger effect = lower value
# How it was run: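 Viability of tumor cells grown as complex spheroids with endothelial and stromal cells, exposed to drug combinations. Top concentration at or near clinical Cmax (else 10 microM), diluted in half-log increments.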
# [1] = second compound 0.0316 µM, first compound 0.0316 µM
# [2] = second compound 0.0316 µM, first compound 0.1 µM
# [3] = second compound 0.0316 µM, first compound 0.316 µM
# [4] = second compound 0.0316 µM, first compound 1 µM
# [5] = second compound 0.0316 µM, first compound 3.16 µM
# [6] = second compound 0.0316 µM, first compound 10 µM
# [7] = second compound 0.1 µM, first compound 0.0316 µM
# [8] = second compound 0.1 µM, first compound 0.1 µM
# [9] = second compound 0.1 µM, first compound 0.316 µM
# [10] = second compound 0.1 µM, first compound 1 µM
# [11] = second compound 0.1 µM, first compound 3.16 µM
# [12] = second compound 0.1 µM, first compound 10 µM
# [13] = second compound 0.316 µM, first compound 0.0316 µM
# [14] = second compound 0.316 µM, first compound 0.1 µM
# [15] = second compound 0.316 µM, first compound 0.316 µM
# [16] = second compound 0.316 µM, first compound 1 µM
# [17] = second compound 0.316 µM, first compound 3.16 µM
# [18] = second compound 0.316 µM, first compound 10 µM
# [19] = second compound 1 µM, first compound 0.0316 µM
# [20] = second compound 1 µM, first compound 0.1 µM
# [21] = second compound 1 µM, first compound 0.316 µM
# [22] = second compound 1 µM, first compound 1 µM
# [23] = second compound 1 µM, first compound 3.16 µM
# [24] = second compound 1 µM, first compound 10 µM
# [25] = second compound 3.16 µM, first compound 0.0316 µM
# [26] = second compound 3.16 µM, first compound 0.1 µM
# [27] = second compound 3.16 µM, first compound 0.316 µM
# [28] = second compound 3.16 µM, first compound 1 µM
# [29] = second compound 3.16 µM, first compound 3.16 µM
# [30] = second compound 3.16 µM, first compound 10 µM
# [31] = second compound 10 µM, first compound 0.0316 µM
# [32] = second compound 10 µM, first compound 0.1 µM
# [33] = second compound 10 µM, first compound 0.316 µM
# [34] = second compound 10 µM, first compound 1 µM
# [35] = second compound 10 µM, first compound 3.16 µM
# [36] = second compound 10 µM, first compound 10 µM
# 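Note: spheroids exposed to agents for 7 days before readout.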
# 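Throughout, for viability, T/C: percent viability relative to DMSO vehicle control taken as 100%.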
compound,measurement,setting,value
CC1COCCN1c1cc(C2(S(C)(=N)=O)CC2)nc(-c2ccnc3[nH]ccc23)n1 (stereo not drawn) + Cc1[nH]c2ccc(F)cc2c1-c1nc2c3cccnc3c3ncccc3c2[nH]1,pIC50,second compound 0.0316 µM,6.16
same,pIC50,second compound 0.1 µM,6.15
same,pIC50,second compound 0.316 µM,6.17
same,pIC50,second compound 1 µM,6.15
same,pIC50,second compound 3.16 µM,6.29
same,pIC50,second compound 10 µM,> 7.50
same,"viability, T/C",[1],110%
same,"viability, T/C",[2],95.6%
same,"viability, T/C",[3],106%
same,"viability, T/C",[4],25.7%
same,"viability, T/C",[5],11.6%
same,"viability, T/C",[6],8.11%
same,"viability, T/C",[7],96.8%
same,"viability, T/C",[8],107%
same,"viability, T/C",[9],93.4%
same,"viability, T/C",[10],30.4%
same,"viability, T/C",[11],10.7%
same,"viability, T/C",[12],7.69%
same,"viability, T/C",[13],94.7%
same,"viability, T/C",[14],106%
same,"viability, T/C",[15],95.3%
same,"viability, T/C",[16],27.5%
same,"viability, T/C",[17],11.1%
same,"viability, T/C",[18],8.75%
same,"viability, T/C",[19],89.8%
same,"viability, T/C",[20],117%
same,"viability, T/C",[21],105%
same,"viability, T/C",[22],27.2%
same,"viability, T/C",[23],10.7%
same,"viability, T/C",[24],6.79%
same,"viability, T/C",[25],97.7%
same,"viability, T/C",[26],92%
same,"viability, T/C",[27],77.4%
same,"viability, T/C",[28],10.7%
same,"viability, T/C",[29],6.38%
same,"viability, T/C",[30],4.15%
same,"viability, T/C",[31],45.7%
same,"viability, T/C",[32],39.1%
same,"viability, T/C",[33],30.1%
same,"viability, T/C",[34],4.8%
same,"viability, T/C",[35],4.1%
same,"viability, T/C",[36],2.86%
COc1ccc([C@@H](O)c2cc(-c3ncnc4cc(N5CCOCC5)ccc34)c(F)cc2Cl)nn1 + Cc1[nH]c2ccc(F)cc2c1-c1nc2c3cccnc3c3ncccc3c2[nH]1,pIC50,second compound 0.0316 µM,< 5.00
same,pIC50,second compound 0.1 µM,< 5.00
same,pIC50,second compound 0.316 µM,< 5.00
same,pIC50,second compound 1 µM,5.01
same,pIC50,second compound 3.16 µM,5.65
same,pIC50,second compound 10 µM,6.47
same,"viability, T/C",[1],110%
same,"viability, T/C",[2],81.3%
same,"viability, T/C",[3],103%
same,"viability, T/C",[4],79.8%
same,"viability, T/C",[5],87.4%
same,"viability, T/C",[6],53.6%
same,"viability, T/C",[7],92.1%
same,"viability, T/C",[8],111%
same,"viability, T/C",[9],93.4%
same,"viability, T/C",[10],99.7%
same,"viability, T/C",[11],84.1%
same,"viability, T/C",[12],51.4%
same,"viability, T/C",[13],82.2%
same,"viability, T/C",[14],111%
same,"viability, T/C",[15],115%
same,"viability, T/C",[16],97.8%
same,"viability, T/C",[17],81.5%
same,"viability, T/C",[18],51.6%
same,"viability, T/C",[19],96.5%
same,"viability, T/C",[20],111%
same,"viability, T/C",[21],132%
same,"viability, T/C",[22],90%
same,"viability, T/C",[23],72.6%
same,"viability, T/C",[24],48.3%
same,"viability, T/C",[25],102%
same,"viability, T/C",[26],79%
same,"viability, T/C",[27],103%
same,"viability, T/C",[28],65.5%
same,"viability, T/C",[29],45.1%
same,"viability, T/C",[30],26%
same,"viability, T/C",[31],41.2%
same,"viability, T/C",[32],82.5%
same,"viability, T/C",[33],45.6%
same,"viability, T/C",[34],29.6%
same,"viability, T/C",[35],33%
same,"viability, T/C",[36],7.18%
Cn1ncnc1[C@H]1c2n[nH]c(=O)c3cc(F)cc(c23)N[C@@H]1c1ccc(F)cc1 + Cc1[nH]c2ccc(F)cc2c1-c1nc2c3cccnc3c3ncccc3c2[nH]1,pIC50,second compound 0.0316 µM,< 6.50
same,pIC50,second compound 0.1 µM,< 6.50
same,pIC50,second compound 0.316 µM,< 6.50
same,pIC50,second compound 1 µM,< 6.50
same,pIC50,second compound 3.16 µM,6.83
same,pIC50,second compound 10 µM,7.10
same,"viability, T/C","second compound 0.0316 µM, first compound 0.000999 µM",93.8%
same,"viability, T/C","second compound 0.0316 µM, first compound 0.00316 µM",88.8%
same,"viability, T/C","second compound 0.0316 µM, first compound 0.00999 µM",95.5%
same,"viability, T/C",[1],82.2%
same,"viability, T/C","second compound 0.0316 µM, first compound 0.0999 µM",96.1%
same,"viability, T/C",[3],74.7%
same,"viability, T/C","second compound 0.1 µM, first compound 0.000999 µM",93.5%
same,"viability, T/C","second compound 0.1 µM, first compound 0.00316 µM",109%
same,"viability, T/C","second compound 0.1 µM, first compound 0.00999 µM",94.5%
same,"viability, T/C",[7],106%
same,"viability, T/C","second compound 0.1 µM, first compound 0.0999 µM",89.2%
same,"viability, T/C",[9],76.3%
same,"viability, T/C","second compound 0.316 µM, first compound 0.000999 µM",83.9%
same,"viability, T/C","second compound 0.316 µM, first compound 0.00316 µM",115%
same,"viability, T/C","second compound 0.316 µM, first compound 0.00999 µM",102%
same,"viability, T/C",[13],105%
same,"viability, T/C","second compound 0.316 µM, first compound 0.0999 µM",86.5%
same,"viability, T/C",[15],69.6%
same,"viability, T/C","second compound 1 µM, first compound 0.000999 µM",82.6%
same,"viability, T/C","second compound 1 µM, first compound 0.00316 µM",108%
same,"viability, T/C","second compound 1 µM, first compound 0.00999 µM",116%
same,"viability, T/C",[19],103%
same,"viability, T/C","second compound 1 µM, first compound 0.0999 µM",80%
same,"viability, T/C",[21],68.4%
same,"viability, T/C","second compound 3.16 µM, first compound 0.000999 µM",89.1%
same,"viability, T/C","second compound 3.16 µM, first compound 0.00316 µM",90.6%
same,"viability, T/C","second compound 3.16 µM, first compound 0.00999 µM",87.5%
same,"viability, T/C",[25],83.2%
same,"viability, T/C","second compound 3.16 µM, first compound 0.0999 µM",54.6%
same,"viability, T/C",[27],41.1%
same,"viability, T/C","second compound 10 µM, first compound 0.000999 µM",69.3%
same,"viability, T/C","second compound 10 µM, first compound 0.00316 µM",73.9%
same,"viability, T/C","second compound 10 µM, first compound 0.00999 µM",76.3%
same,"viability, T/C",[31],75.8%
same,"viability, T/C","second compound 10 µM, first compound 0.0999 µM",44.3%
same,"viability, T/C",[33],24.1%
O=C(c1cc(Cc2n[nH]c(=O)c3ccccc23)ccc1F)N1CCN(C(=O)C2CC2)CC1 + Cc1[nH]c2ccc(F)cc2c1-c1nc2c3cccnc3c3ncccc3c2[nH]1,pIC50,second compound 0.0316 µM,< 5.00
same,pIC50,second compound 0.1 µM,< 5.00
same,pIC50,second compound 0.316 µM,< 5.00
same,pIC50,second compound 1 µM,< 5.00
same,pIC50,second compound 3.16 µM,5.38
same,pIC50,second compound 10 µM,5.97
same,"viability, T/C",[1],103%
same,"viability, T/C",[2],85.7%
same,"viability, T/C",[3],106%
same,"viability, T/C",[4],87.3%
same,"viability, T/C",[5],97.2%
same,"viability, T/C",[6],63.3%
same,"viability, T/C",[7],94%
same,"viability, T/C",[8],109%
same,"viability, T/C",[9],88.3%
same,"viability, T/C",[10],98.8%
same,"viability, T/C",[11],95.5%
same,"viability, T/C",[12],60%
same,"viability, T/C",[13],97.7%
same,"viability, T/C",[14],99.7%
same,"viability, T/C",[15],97.9%
same,"viability, T/C",[16],96.6%
same,"viability, T/C",[17],95.4%
same,"viability, T/C",[18],60.8%
same,"viability, T/C",[19],85.9%
same,"viability, T/C",[20],115%
same,"viability, T/C",[21],97.8%
same,"viability, T/C",[22],97.4%
same,"viability, T/C",[23],89.4%
same,"viability, T/C",[24],62%
same,"viability, T/C",[25],98.9%
same,"viability, T/C",[26],98.5%
same,"viability, T/C",[27],97.3%
same,"viability, T/C",[28],93.8%
same,"viability, T/C",[29],54.5%
same,"viability, T/C",[30],35.6%
same,"viability, T/C",[31],45.4%
same,"viability, T/C",[32],46.9%
same,"viability, T/C",[33],56.7%
same,"viability, T/C",[34],54.7%
same,"viability, T/C",[35],37.6%
same,"viability, T/C",[36],20.7%
